The conditions of data set [1]: hydrated ion in aqueous solution; cited from earlier work.
Data set [2] in a line: Solubility in water / aqueous solution. Type of data set: physicochemical.
Data set [3] can be described thus: Stability of maltol in hot aqueous solution. Format: physicochemical. To be noted: near boiling temperatures.

Turning to `[Cl][Fe]([Cl])[Cl]` [Ferric chloride], the Ka in data set [1] is 7×10^−3.

For `Cc1occc(=O)c1[O-].Cc1occc(=O)c1[O-].Cc1occc(=O)c1[O-].[Fe+3]` [ferric trimaltol], in data set [2] (water, about 25° C.), the “maximum solubility in water” value is given as “about 3.5 g/100 ml water”.

Regarding `[Cl][Fe][Cl]` [ferrous chloride], the Ka in data set [1] is 5×10^−9.

Turning to `Cc1occc(=O)c1O` [maltol, 3-hydroxy-2-methyl-4-pyrone], in data set [2] (aqueous alkali hydroxide solutions), the “solubility in aqueous alkali hydroxide solutions” value is recorded as “very soluble”. Also, the solubility on heating in data set [2] (heating to near boiling temperatures) is given as 10 g/100 ml; in data set [2] (water, heating to temperatures above 60° C.), “up to 10 g/100 ml”. In addition, the “solubility at low pH” value in data set [2] (low pH values of iron chloride solutions (pH 1-5)) is given as “virtually insoluble”. In addition, in data set [2] (water, pH range 6-8, 20° C.), the maximum aqueous solubility turned out to be 1 g/100 ml. Also, the “stability in aqueous solution” value in data set [3] is “stable”.

Source of the values: US9096629B2, “Process of forming iron hydroxypyrone compounds” (Iron Therapeutics Holdings AG, priority 2011, dated 2015).
